Assays:
human GPR40 = biological target: T1, human GPR40 (Homo sapiens, UniProt O14842); experiment: Effect of regulation of GPR40 receptor function (agonistic effect), intracellular calcium by FLIPR; assay type: cell-based; conditions: CHO cell line (No. 104) expressing human GPR40, fluorescence intensity at 30 sec after start of reaction
T1 construct: expressed in transfected cells; host or cells: CHO cell line CHO-hGPR40 No. 104 (pAKKO-111 vector)
Description: CHO cell line (No. 104) made to express human GPR40 was diluted such that 3×10^4 cells/100 μL were contained, dispensed to a black walled 96-well plate (Costar) at 100 μL per well, and incubated overnight in a CO2 incubator. The changes in the intracellular calcium concentration were measured using FLIPR (Molecular Device). The method is described in the following.
Fluo-3AM (DOJIN) (50 μg) was dissolved in 21 μl DMSO (DOJIN), and an equal amount of 20% pluronic acid (Molecular Probes) was added and mixed, and the mixture was added to 10.6 ml of an assay buffer [prepared by adding 20 ml of 1M HEPES (pH 7.4) (DOJIN) to 1 L of HBSS (Invitrogen), and adding a mixed solution (10 ml) obtained by dissolving probenecid (Sigma) (710 mg) in 1N NaOH (5 ml) and adding and mixing with the above-mentioned HBSS/HEPES solution (5 ml)] supplemented with 105 μl of fetal calf serum to give a fluorescence dye solution. The medium in the cell plate was removed, a fluorescence dye solution was immediately dispensed at 100 μl per well, and incubated in a CO2 incubator for 1 hr to incorporate fluorescence dye into the cell. The incubated cells were washed with the above-mentioned assay buffer. The compound to be added to the cell was diluted with the assay buffer to each concentration and dispensed to a test sample plate. After the above-mentioned pretreatment, changes in the intracellular calcium concentration after addition of the compound was measured by FLIPR, and the agonistic effect was examined. EC50 value was calculated from a dose response curve based on the changes in the fluorescence intensity value at 30 sec after the start of the reaction.

[1] = system: mouse pancreatic β cell line MIN6; experiment: Promotion of insulin secretion from MIN6 (insulin immunoassay); assay type: cell-based; conditions: MIN6, KRBH with 22 mM glucose, 90 min
Description: (§1) Mouse pancreatic β cell line MIN6 cultured in a flask was detached with PBS containing 2.5 mM EDTA, and seeded and incubated in a 96 well plate for 2 days. The medium used was obtained by adding 15% fetal bovine serum (ThermoTrace), […] 2-mercaptoethanol (Invitrogen), 20 mM HEPES pH 7.3, 100 U/ml penicillin and 100 μg/ml streptomycin to Dulbecco's Modified Eagle Medium (DMEM, Invitrogen) containing 4.5 g/l of glucose. The cells were washed twice with modified Krebs-Ringer bicarbonate buffer (KRBH, 116 mM NaCl, 4.7 mM KCl, 1.2 mM KH2PO4, 1.2 mM MgSO4, 2.5 mM CaCl2, 25 mM NaHCO3, 24 mM HEPES pH 7.3) and preincubated at 37° C. under 5% CO2 conditions for 30 min. Fatty acid diluted and prepared with a buffer obtained by adding 22 mM glucose to the above-mentioned KRBH was added to the cell after preincubation and the cells were incubated at 37° C. under 5% CO2 conditions for 90 min. After incubation, the cell supernatant was recovered and cryopreserved. The insulin content of the supernatant was measured using a commercially available insulin immunoassay kit (Amersham Pharmacia Biotech).
as §1, with “(KBH,” for “(KRBH,”, “The compound” for “Fatty acid”

Male SD rats = experiment: In vivo insulin secretion promoting effect and hypoglycemic action, oral glucose tolerance test; set-up: species or system rat; conditions: 30 mg/kg oral, glucose 2 g/kg oral 30 min after administration, Williams test p<=0.025
Description: Male SD rats (CLEA Japan, Inc, 7-week-old) were fasted for one day, and divided into groups (6 per group) based on blood glucose level and body weight. A suspension of the compound of Example 41 in 0.5% methyl cellulose was orally administered at the dose of 30 mg/kg and glucose (2 g/kg) was orally loaded at 30 min after administration. Only 0.5% methyl cellulose was administered to the control group, and similarly loaded with glucose. Plasma was taken before glucose tolerance test, and 7, 30 and 60 minutes after glucose tolerance test, and the blood glucose level and insulin concentration were measured. The blood glucose level was measured by HITACHI autoanalyzer 7070, and insulin was measured by radioimmunoassay ([^125L] Sionoria insulin, Shionogi & Co., Ltd.).

T1 sequence (O14842 whole entry): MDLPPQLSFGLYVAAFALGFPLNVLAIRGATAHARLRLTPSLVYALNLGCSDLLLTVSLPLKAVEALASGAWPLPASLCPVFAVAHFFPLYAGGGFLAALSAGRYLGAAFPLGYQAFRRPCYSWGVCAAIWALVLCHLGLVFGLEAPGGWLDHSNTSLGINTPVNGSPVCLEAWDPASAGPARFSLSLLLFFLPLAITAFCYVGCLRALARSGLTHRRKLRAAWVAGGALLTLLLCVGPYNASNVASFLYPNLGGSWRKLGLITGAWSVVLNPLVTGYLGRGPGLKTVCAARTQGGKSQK

In the case of `O=C(O)CCc1ccc(O[C@@H]2CCc3ccccc32)cc1` [Example 41, (R)-4-[(2,3-dihydro-1H-inden-1-yl)oxy]benzenepropanoic acid], the EC50 (human GPR40) is reported as 55 nM, the “insulin secretion enhancing activity” value [1] is reported as “significant insulin secretion enhancing activity” and the “increase in insulin versus control group” value (Male SD rats; at 7 minutes after glucose tolerance test) is reported as “significantly greater increase in insulin”. For the same compound, the “increase in blood glucose level versus control group” value (Male SD rats; at 30 minutes after glucose tolerance test) was “significantly suppressed increase in the blood glucose level”.
